Target: human recombinant Btk (Homo sapiens, UniProt Q06187)
Experiment: Btk Enzymatic Activity Assay (Caliper-based kinase assay)
Type: biochemical
Settings: human recombinant Btk 2 nM, ATP 40 μM, peptide substrate 1 μM, room temperature, 3 h; read-out: IC50 (inhibition of Btk kinase activity)
Protocol: A Caliper-based kinase assay (Caliper Life Sciences, Hopkinton, Mass.) was used to measure inhibition of Btk kinase activity of a compound of Formula (I). Serial dilutions of test compounds were incubated with human recombinant Btk (2 nM), ATP (40 μM) and a phosphoacceptor peptide substrate FAM-GEEPLYWSFPAKKK-NH2 (1 μM) at room temperature for 3 h. The reaction was then terminated with EDTA, final concentration 20 mM and the phosphorylated reaction product was quantified on a Caliper Desktop Profiler (Caliper LabChip 3000). Percent inhibition was calculated for each compound dilution and the concentration that produced 50% inhibition was calculated. This value is presented as the IC50.

Chain of human recombinant Btk (Q06187 whole entry): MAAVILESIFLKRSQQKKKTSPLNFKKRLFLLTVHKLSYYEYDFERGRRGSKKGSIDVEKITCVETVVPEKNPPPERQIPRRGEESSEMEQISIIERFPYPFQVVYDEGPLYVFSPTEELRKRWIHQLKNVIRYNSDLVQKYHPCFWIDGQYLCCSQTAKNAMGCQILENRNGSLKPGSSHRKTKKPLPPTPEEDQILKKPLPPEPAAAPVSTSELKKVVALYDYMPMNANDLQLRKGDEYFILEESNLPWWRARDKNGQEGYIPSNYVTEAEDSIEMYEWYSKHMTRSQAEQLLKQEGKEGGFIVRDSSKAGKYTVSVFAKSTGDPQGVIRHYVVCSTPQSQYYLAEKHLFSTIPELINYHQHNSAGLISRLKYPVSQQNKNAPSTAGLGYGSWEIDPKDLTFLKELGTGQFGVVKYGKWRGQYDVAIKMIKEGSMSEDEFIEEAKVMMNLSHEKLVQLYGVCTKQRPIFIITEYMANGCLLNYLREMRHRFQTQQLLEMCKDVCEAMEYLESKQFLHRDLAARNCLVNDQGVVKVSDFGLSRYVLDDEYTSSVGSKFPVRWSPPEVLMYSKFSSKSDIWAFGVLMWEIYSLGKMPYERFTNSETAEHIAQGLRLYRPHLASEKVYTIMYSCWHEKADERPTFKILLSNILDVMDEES

IC50 [nM]	Compound
203	Nc1ncnc2c1c(-c1ccc(Oc3ccccc3)cc1)nn2C[C@H]1CCCN1C(=O)C(F)=CC1CC1 [Example 1, (R)-1-(2-((4-amino-3-(4-phenoxyphenyl)-1H-pyrazolo[3,4-d]pyrimidin-1-yl)methyl)pyrrolidin-1-yl)-3-cyclopropyl-2-fluoroprop-2-en-1-one]
41	Nc1ncnc2c1c(-c1ccc(Oc3ccccc3)cc1)nn2C[C@H]1CCCN1C(=O)C(=CC1CC1)C(F)(F)F [Example 2, (R)-1-(2-((4-amino-3-(4-phenoxyphenyl)-1H-pyrazolo[3,4-d]pyrimidin-1-yl)methyl)pyrrolidin-1-yl)-3-cyclopropyl-2-(trifluoromethyl)prop-2-en-1-one]
23	Nc1ncnc2c1c(-c1ccc(Oc3ccccc3)cc1)nn2CCCN1C(=O)SC(=CC2CC2)C1=O [Example 3, 3-(3-(4-amino-3-(4-phenoxyphenyl)-1H-pyrazolo[3,4-d]pyrimidin-1-yl)propyl)-5-(cyclopropylmethylene)thiazolidine-2,4-dione]
860	Nc1ncnc2c1c(-c1ccc(Oc3ccccc3)cc1)nn2CCN1C(=O)SC(=Cc2ccccc2)C1=O [Example 4, 3-(2-(4-amino-3-(4-phenoxyphenyl)-1H-pyrazolo[3,4-d]pyrimidin-1-yl)ethyl)-5-benzylidenethiazolidine-2,4-dione]
49	Nc1ncnc2c1c(-c1ccc(Oc3ccccc3)cc1)nn2CCN1C(=O)SC(=CC2CC2)C1=O [Example 5, 3-(2-(4-amino-3-(4-phenoxyphenyl)-1H-pyrazolo[3,4-d]pyrimidin-1-yl)ethyl)-5-(cyclopropylmethylene)thiazolidine-2,4-dione]
